Laboratory results from ChEMBL document CHEMBL1201862, “PubChem BioAssay data set” (2004).
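Where inhibition never reached the appropriate level, the endpoint shown equals the highest concentration tested. Otherwise, values were interpolated linearly from a five-concentration, 48-hour dose response in 96-well plates. GI50 marks 50% less growth.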 Active and inactive are the calls of the source. No stated cut-off is given here; in the data, active = GI50 up to about 1.1 µM and inactive = higher.

What was measured:
Assay in all cases: inhibition of tumour cell growth, NCI panel, 48 h
OVCAR-8 = test system: OVCAR-8
MDA-N = test system: MDA-N
NCI/ADR-RES = test system: NCI/ADR-RES
RPMI-8226 = test system: RPMI-8226
Malme-3M = test system: Malme-3M
NCI-H522 = test system: NCI-H522
UACC-257 = test system: UACC-257
LOX IMVI = test system: LOX IMVI
HOP-62 = test system: HOP-62
Hs-578T = test system: Hs-578T
SNB-19 = test system: SNB-19
PC-3 = test system: PC-3
HOP-92 = test system: HOP-92
K562 = test system: K562
OVCAR-3 = test system: OVCAR-3
U-251 = test system: U-251
SK-OV-3 = test system: SK-OV-3
BT-549 = test system: BT-549
SF-539 = test system: SF-539
DMS-114 = test system: DMS-114

Row | SMILES | GI50 (OVCAR-8) | GI50 (MDA-N) | GI50 (NCI/ADR-RES) | GI50 (RPMI-8226) | GI50 (Malme-3M) | GI50 (NCI-H522) | GI50 (UACC-257) | GI50 (LOX IMVI) | GI50 (HOP-62) | GI50 (Hs-578T) | GI50 (SNB-19) | GI50 (PC-3) | GI50 (HOP-92) | GI50 (K562) | GI50 (OVCAR-3) | GI50 (U-251) | GI50 (SK-OV-3) | GI50 (BT-549) | GI50 (SF-539) | GI50 (DMS-114)
1 | CN(C)Cc1ccc(C(C)(C)C)cc1-c1cc(C(C)(C)C)ccc1CN(C)C | > 100 µM (inactive) | 48.5 µM (inactive) | > 100 µM (inactive) | 26.9 µM (inactive) | 31.3 µM (inactive) | 50.5 µM (inactive) | 21.6 µM (inactive) | 83.6 µM (inactive) | > 100 µM (inactive) | > 100 µM (inactive) | > 100 µM (inactive) | 27.7 µM (inactive) | > 100 µM (inactive) | 27.8 µM (inactive) | 21.8 µM (inactive) | 42.7 µM (inactive) | > 100 µM (inactive) | > 100 µM (inactive) | > 100 µM (inactive) | 
2 | CCc1nc2c(c(N(C)C)c1C(=O)OC)CCc1ccccc1-2 | 34.1 µM (inactive) | 26.2 µM (inactive) | 29.6 µM (inactive) | 18.7 µM (inactive) | 30.5 µM (inactive) | 17.9 µM (inactive) | 26.1 µM (inactive) | 27.2 µM (inactive) | 24.8 µM (inactive) | 51.1 µM (inactive) | 38.4 µM (inactive) | 18 µM (inactive) | 65.2 µM (inactive) | 20.2 µM (inactive) | 13.4 µM (inactive) | 30.9 µM (inactive) | 13.8 µM (inactive) | 35 µM (inactive) | 39.4 µM (inactive) | 
3 | CC(=O)N1N=C(c2cc(C)ccc2O)CC1c1cccc(Cl)c1 (configuration not stated) | 27.4 µM (inactive) | 2.12 µM (inactive) | 6.03 µM (inactive) | 6.24 µM (inactive) | 6.93 µM (inactive) | 3.07 µM (inactive) | 14.2 µM (inactive) | 12.5 µM (inactive) | 22.3 µM (inactive) | 12.9 µM (inactive) | 6.08 µM (inactive) | 3.35 µM (inactive) | 3.17 µM (inactive) | 4.05 µM (inactive) | 32.1 µM (inactive) | 13.8 µM (inactive) | 9.1 µM (inactive) | 33.3 µM (inactive) | 19.2 µM (inactive) | 
4 | COc1ccc2c3c1O[C@H]1[C@@H](O)CC[C@@]4(O)[C@@H](C2)N(C)CC[C@]314 | > 100 µM (inactive) | > 100 µM (inactive) | > 100 µM (inactive) | > 100 µM (inactive) | > 100 µM (inactive) | > 100 µM (inactive) | > 100 µM (inactive) | > 100 µM (inactive) | > 100 µM (inactive) | > 100 µM (inactive) | > 100 µM (inactive) | > 100 µM (inactive) | > 100 µM (inactive) | > 100 µM (inactive) | > 100 µM (inactive) | > 100 µM (inactive) | > 100 µM (inactive) | > 100 µM (inactive) | > 100 µM (inactive) | 
5 | Cc1ccc(C(=O)C2C=C(c3ccc(C)cc3)SC3C=CCC32)cc1 (configuration not stated) | 17 µM (inactive) | 14.8 µM (inactive) | 18.5 µM (inactive) | 16.3 µM (inactive) | 16.3 µM (inactive) | 15.3 µM (inactive) | 21.7 µM (inactive) | 18.4 µM (inactive) | 20.3 µM (inactive) | 26.1 µM (inactive) | 30 µM (inactive) | 18.1 µM (inactive) | 17.8 µM (inactive) | 27.7 µM (inactive) | 17 µM (inactive) | 17.9 µM (inactive) | 25.2 µM (inactive) | 18.3 µM (inactive) | 17.9 µM (inactive) | 
6 | CC1CNC(c2cccc(-c3nc(-c4cccc(C5=NC(C)CN5)c4)nc(N(C)C)n3)c2)=N1 (configuration not stated) | 2.15 µM (inactive) | 1.52 µM (inactive) | 16.5 µM (inactive) | 2.75 µM (inactive) | 3.87 µM (inactive) | 0.757 µM (active) | 3.16 µM (inactive) | 1.12 µM (inactive) | 1.08 µM (active) | 2.74 µM (inactive) | 0.752 µM (active) | 0.671 µM (active) | 3.87 µM (inactive) | 0.682 µM (active) | 1.53 µM (inactive) | 0.653 µM (active) | 1.58 µM (inactive) | 3.19 µM (inactive) | 0.454 µM (active) | 
7 | O=C(CCOS(=O)(=O)CF)N1CCN(C(=O)CCOS(=O)(=O)CF)CC1 | 60.1 µM (inactive) | > 100 µM (inactive) | > 100 µM (inactive) | > 46.5 µM (inactive) | > 57.3 µM (inactive) | 31.6 µM (inactive) | > 100 µM (inactive) | 16.9 µM (inactive) | 43.2 µM (inactive) | 22.2 µM (inactive) | 58.3 µM (inactive) | > 100 µM (inactive) | 35.6 µM (inactive) | 56.5 µM (inactive) | > 100 µM (inactive) | 29.8 µM (inactive) | > 27.2 µM (inactive) | > 100 µM (inactive) | 28.8 µM (inactive) | 
8 | Sc1ccccc1S | > 10 µM (inactive) |  |  |  | > 100 µM (inactive) |  |  | > 100 µM (inactive) | > 100 µM (inactive) |  | > 100 µM (inactive) |  | > 100 µM (inactive) | > 100 µM (inactive) | > 100 µM (inactive) | > 100 µM (inactive) | > 100 µM (inactive) |  |  | > 100 µM (inactive)
9 | Cc1nc2ccccc2n1CCc1nc2ccccc2[nH]1 | > 100 µM (inactive) | > 100 µM (inactive) | > 100 µM (inactive) | > 100 µM (inactive) | > 100 µM (inactive) | > 100 µM (inactive) | > 100 µM (inactive) | > 100 µM (inactive) | > 100 µM (inactive) | > 100 µM (inactive) | > 100 µM (inactive) | > 100 µM (inactive) | > 100 µM (inactive) | > 100 µM (inactive) | > 100 µM (inactive) | > 100 µM (inactive) | > 100 µM (inactive) | > 100 µM (inactive) | > 100 µM (inactive) | 
10 | Nc1c2c(nc3cc(F)c(F)cc13)CCC2 | 44.5 µM (inactive) | 49 µM (inactive) | 60.1 µM (inactive) | 43.9 µM (inactive) | 41.7 µM (inactive) | 72.8 µM (inactive) | 44.4 µM (inactive) | 36.6 µM (inactive) | > 100 µM (inactive) | > 100 µM (inactive) | 48.6 µM (inactive) | 39.8 µM (inactive) | 38.3 µM (inactive) | 35.3 µM (inactive) | > 100 µM (inactive) | 56.6 µM (inactive) | 62.1 µM (inactive) | > 100 µM (inactive) | 46 µM (inactive) | 
11 | C=C1C(=O)OC2C1C(OC(=O)/C(C)=C/C)CC(O)(CCl)C1C(O)C=C(C)C21O (configuration not stated) | 10.9 µM (inactive) | 14.9 µM (inactive) | 17.9 µM (inactive) | 5.68 µM (inactive) | 2.22 µM (inactive) | 1.43 µM (inactive) | 12.1 µM (inactive) | 4.89 µM (inactive) | > 46.1 µM (inactive) | > 62.1 µM (inactive) | > 43.8 µM (inactive) | 21.7 µM (inactive) | 8.93 µM (inactive) | 3.78 µM (inactive) | 11.9 µM (inactive) | 27.5 µM (inactive) | 47.9 µM (inactive) | 9.48 µM (inactive) | 20.6 µM (inactive) | 
12 | CN1CCOC1c1ccccc1O (configuration not stated) | > 100 µM (inactive) | > 100 µM (inactive) | > 100 µM (inactive) | > 100 µM (inactive) | > 100 µM (inactive) | > 100 µM (inactive) | > 100 µM (inactive) | > 100 µM (inactive) | > 100 µM (inactive) | > 100 µM (inactive) | > 100 µM (inactive) | > 100 µM (inactive) | > 100 µM (inactive) | > 100 µM (inactive) | > 100 µM (inactive) | > 100 µM (inactive) | > 100 µM (inactive) | > 100 µM (inactive) | > 100 µM (inactive) | 
13 | CC(C)OC(=O)OCSc1ccccc1/N=C/c1cccc([N+](=O)[O-])c1 | > 10 µM (inactive) | > 10 µM (inactive) | > 10 µM (inactive) | > 10 µM (inactive) | > 10 µM (inactive) | > 10 µM (inactive) | > 10 µM (inactive) | > 10 µM (inactive) | > 10 µM (inactive) | > 10 µM (inactive) | > 10 µM (inactive) | > 10 µM (inactive) | > 10 µM (inactive) | > 10 µM (inactive) | > 10 µM (inactive) | > 10 µM (inactive) | > 10 µM (inactive) | > 10 µM (inactive) | > 10 µM (inactive) | 
14 | Clc1ccc(/C=N/C23CC4CC(CC(C4)C2)C3)c(Cl)c1 | > 10 µM (inactive) | > 10 µM (inactive) | > 10 µM (inactive) | > 10 µM (inactive) | > 10 µM (inactive) | > 10 µM (inactive) | > 10 µM (inactive) | > 10 µM (inactive) | > 10 µM (inactive) | > 10 µM (inactive) | > 10 µM (inactive) | > 10 µM (inactive) | > 10 µM (inactive) | > 10 µM (inactive) | > 10 µM (inactive) | > 10 µM (inactive) | > 10 µM (inactive) | > 10 µM (inactive) | > 10 µM (inactive) | 
15 | CCCCCCCCCCCCCCCCOCC(Cl)COP(=O)(O)OP(=O)(O)OCC1OC(n2cnc3c(N)ncnc32)C(O)C1O (configuration not stated) | > 100 µM (inactive) | 61.8 µM (inactive) | > 100 µM (inactive) | > 100 µM (inactive) | > 100 µM (inactive) | > 100 µM (inactive) | > 100 µM (inactive) | 75.9 µM (inactive) | > 100 µM (inactive) | 32.4 µM (inactive) | > 100 µM (inactive) | 29.9 µM (inactive) | 70.8 µM (inactive) | > 100 µM (inactive) | > 100 µM (inactive) | > 100 µM (inactive) | 68.5 µM (inactive) | > 100 µM (inactive) | 76 µM (inactive) | 
